From patent US20250282746A1, “HALOGEN-SUBSTITUTED ISOINDOLINE COMPOUND AND USE THEREOF” (CHENGDU FENDI PHARMACEUTICAL CO., LTD., priority 2022, published 2025)
Read-outs that look alike come from different tables or passages of the source.

Columns and labels:
MV-4-11 cells = test: Antiproliferative activity against MV-4-11 cells (CellTiter-Glo, 72 h); assay type: cell-based; details: Homo sapiens, read-out: Antiproliferative activity IC50
Description: MV411 cells in the logarithmic growth phase were diluted in a medium (RPMI+10% FBS) and plated at 5,000 cells/well in 96-well whole black plates (WHB) with 50 μL/well. After plating, the plates were incubated in an incubator at 5% CO2 and 37° C. for 24 h before the compounds were added. The compounds were prepared into a 10 mM stock solution in DMSO and diluted in a culture medium to the desired concentrations (a final DMSO concentration of 0.2%). […] The plates were incubated at 5% CO2 and 37° C. for 72 h. After the incubation was complete, the plates were equilibrated at room temperature for 30 min. CellTiter-Glo® Reagent (Promega G7573) was added at 100 μL/well. The plates were shaken for 12 min on a microplate shaker. The luminescence value was measured at room temperature by the GloMax navigator (Promega GM2010).

GSPT1 protein = target: T1, GSPT1 protein (Homo sapiens, UniProt P15170); test: Degradation of GSPT1 protein in NB-4 cells (Western blot); assay type: cell-based; details: for inhibition at 1 µM: read-out: GSPT1 degradation
T1 construct: The whole cell lysate was prepared using a RIPA lysis buffer; endogenous in cells; host or cells: NB-4 cells
Description: 150 μL of DMSO and the compounds (1 μM) were added, and the mixture was incubated in an incubator at 5% CO2 and 37° C. for 6 h. The cells were centrifuged, and the culture medium was discarded. PBS was added for washing and then discarded. The whole cell lysate was prepared using a RIPA lysis buffer containing a protease inhibitor cocktail and a phosphatase inhibitor, and incubated on ice for 30 min. The mixture was centrifuged, and the cell debris was discarded. The whole cell lysate supernatant was collected and transferred to a fresh EP tube. Samples were prepared using a loading buffer after a BCA protein assay. The samples were incubated in a metal bath at 100° C. for 10 min.
The samples were electrophoretically separated from proteins on a 4-20% precast gel (SDS-PAGE gel), transferred to a PVDF membrane, blocked with 5% NFDM/TBST for 1 h at room temperature, co-incubated overnight at 4° C. with the primary antibody, and co-incubated for 2 h at room temperature with the secondary antibody on the next day. The signals were detected on the […]™ imaging system.

T1 sequence (P15170 whole entry): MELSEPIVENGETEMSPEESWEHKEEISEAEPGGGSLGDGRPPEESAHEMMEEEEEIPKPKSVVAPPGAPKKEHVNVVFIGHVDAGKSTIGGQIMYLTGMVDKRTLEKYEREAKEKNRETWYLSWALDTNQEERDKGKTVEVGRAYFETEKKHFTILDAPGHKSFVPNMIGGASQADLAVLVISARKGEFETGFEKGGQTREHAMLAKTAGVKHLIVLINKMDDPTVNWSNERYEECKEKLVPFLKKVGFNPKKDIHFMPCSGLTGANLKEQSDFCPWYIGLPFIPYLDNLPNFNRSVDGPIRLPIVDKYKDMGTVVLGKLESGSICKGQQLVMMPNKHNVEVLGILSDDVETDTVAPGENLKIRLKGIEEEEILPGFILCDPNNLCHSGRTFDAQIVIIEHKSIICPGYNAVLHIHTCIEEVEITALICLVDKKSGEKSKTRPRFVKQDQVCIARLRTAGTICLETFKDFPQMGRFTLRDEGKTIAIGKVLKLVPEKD

IC50 (MV-4-11 cells; MV4-11, MV-4-11 cells, 72 h) [nM]	inhibition at 1 µM (GSPT1 protein; NB-4 cells, compound 1 μM, 6 h) [%]	Structure (SMILES)	further results
1 to 10	> 80	O=C1CCC(N2Cc3c(ccc(CNCc4cc5cc(Cl)ccc5o4)c3F)C2=O)C(=O)N1 (stereo not drawn) [FDAB-165]	–
10 to 100	> 80	Cc1ccc(C(=O)NCc2ccc3c(c2F)CN(C2CCC(=O)NC2=O)C3=O)cc1N (stereo not drawn) [FDAB-112]	–
< 1	> 80	CC(C)c1ccc(C(=O)NCc2ccc3c(c2F)CN(C2CCC(=O)NC2=O)C3=O)cc1 (stereo not drawn) [FDAB-93]	–
1 to 10	> 80	O=C(CCCc1ccc(I)cc1)NCc1ccc2c(c1F)CN(C1CCC(=O)NC1=O)C2=O (stereo not drawn) [FDAB-139]	–
100 to 1000	25 to 50	O=C1CCC(N2Cc3c(ccc(CNC(=O)c4ccc(Cl)cc4)c3Cl)C2=O)C(=O)N1 (stereo not drawn) [FDAB-70]	–
> 1000	< 25	CC(C)(C)OC(=O)NCc1ccc2c(c1F)CN(C1CCC(=O)NC1=O)C2=O (stereo not drawn) [FDAB-2]	–
100 to 1000	< 25	Cc1ccc(C(=O)NCc2ccc3c(c2Cl)CN(C2CCC(=O)NC2=O)C3=O)cc1F (stereo not drawn) [FDAB-122]	–
> 1000	< 25	[2H]c1c([2H])c([2H])c(C(=O)NCc2ccc3c(c2F)CN(C2CCC(=O)NC2=O)C3=O)c([2H])c1[2H] (stereo not drawn) [FDAB-88]	–
> 1000	< 25	N#Cc1ccc(NCC(=O)NCc2ccc3c(c2F)CN(C2CCC(=O)NC2=O)C3=O)cc1 (stereo not drawn) [FDAB-149]	–
1 to 10	> 80	C=Cc1ccc(C(=O)NCc2ccc3c(c2F)CN(C2CCC(=O)NC2=O)C3=O)cc1 (stereo not drawn) [FDAB-95]	–
> 1000	< 25	NCc1ccc2c(c1F)CN(C1CCC(=O)NC1=O)C2=O (stereo not drawn) [FDAB-3]	–
> 1000	< 25	CCC#CC(=O)NCc1cc2c(cc1F)C(=O)N(C1CCC(=O)NC1=O)C2 (stereo not drawn) [FDAB-63]	–
1 to 10	> 80	O=C(Cc1c[nH]c2cccc(Br)c12)NCc1ccc2c(c1F)CN(C1CCC(=O)NC1=O)C2=O (stereo not drawn) [FDAB-135]	–
> 1000	< 25	O=C1CCC(N2Cc3cc(CNC(=O)c4ccc(Cl)cc4)c(Cl)cc3C2=O)C(=O)N1 (stereo not drawn) [FDAB-74]	–
> 1000	< 25	O=C1CCC(N2Cc3cc(CNC(=O)c4cc5ccccc5o4)cc(F)c3C2=O)C(=O)N1 (stereo not drawn) [FDAB-21]	–
> 1000	< 25	O=C1CCC(N2Cc3c(ccc(CNC(=O)c4ccccc4)c3F)C2=O)C(=O)N1 (stereo not drawn) [FDAB-81]	–
–	–	Cc1ccc(C(=O)NCc2ccc3c(c2F)CN(C2CCC(=O)N(COC(=O)OC(C)C)C2=O)C3=O)c(F)c1 (stereo not drawn) [FDAB-130]	IC50 (MV-4-11 cells; MV4-11, 72 h): 10 to 100 nM; inhibition at 1 µM (GSPT1 protein; NB-4, 6 h): 50 to 80%
1 to 10	–	NCCc1ccc(NC(=O)NCc2ccc3c(c2F)CN(C2CCC(=O)NC2=O)C3=O)cc1Cl (stereo not drawn) [FDAB-182]	–
> 1000	< 25	CC(C)(C)OC(=O)NCc1cc(F)c2c(c1)CN(C1CCC(=O)NC1=O)C2=O (stereo not drawn) [FDAB-8]	–

IC50 (MV-4-11 cells; MV4-11, MV-4-11 cells, 72 h) [nM]	inhibition at 1 µM (GSPT1 protein; NB-4 cells, compound 1 μM, 6 h) [%]	Structure (SMILES)	further results
100 to 1000	< 25	O=C1CCC(N2Cc3c(CNC(=O)C(F)(F)c4ccc(Cl)cc4)cc(F)cc3C2=O)C(=O)N1 (stereo not drawn) [FDAB-171]	–
> 1000	< 25	CS(=O)(=O)c1ccc(C(=O)NCc2ccc3c(c2F)CN(C2CCC(=O)NC2=O)C3=O)c(N)c1 (stereo not drawn) [FDAB-114]	–
1 to 10	> 80	O=C1CCC(N2Cc3c(ccc(CNC(=O)c4ccc(Cl)cc4Cl)c3F)C2=O)C(=O)N1 (stereo not drawn) [FDAB-50]	–
> 1000	< 25	CC(C)(C)OC(=O)NCc1ccc2c(c1Cl)CN(C1CCC(=O)NC1=O)C2=O (stereo not drawn) [FDAB-11]	–
10 to 100	> 80	COc1ccc(C(=O)NCc2ccc3c(c2F)CN(C2CCC(=O)NC2=O)C3=O)cc1 (stereo not drawn) [FDAB-85]	–
> 1000	< 25	O=C1CCC(N2Cc3cc(CNC(=O)c4ccc(F)cc4)c(F)cc3C2=O)C(=O)N1 (stereo not drawn) [FDAB-26]	–
10 to 100	> 80	O=C1CCC(N2Cc3c(ccc(CNC(=O)c4ccc5c(c4)C(=O)CC5)c3F)C2=O)C(=O)N1 (stereo not drawn) [FDAB-106]	–
10 to 100	> 80	O=C1CCC(N2Cc3cc(CNC(=O)c4ccc5ccccc5n4)c(F)cc3C2=O)C(=O)N1 (stereo not drawn) [FDAB-60]	–
< 1	> 80	O=C(CCc1cccc2ccccc12)NCc1ccc2c(c1F)CN(C1CCC(=O)NC1=O)C2=O (stereo not drawn) [FDAB-138]	–
10 to 100	> 80	O=C1CCC(N2Cc3cc(CNC(=O)c4ccc(Cl)cc4)c(F)cc3C2=O)C(=O)N1 (stereo not drawn) [FDAB-23]	–
100 to 1000	50 to 80	O=C(C#CC1CC1)NCc1cc2c(cc1F)C(=O)N(C1CCC(=O)NC1=O)C2 (stereo not drawn) [FDAB-64]	–
> 1000	< 25	O=C1CCC(N2Cc3cc(CNC(=O)c4nc5ccccc5[nH]4)c(F)cc3C2=O)C(=O)N1 (stereo not drawn) [FDAB-33]	–
< 1	> 80	CC(C)(C)Oc1ccc(C(=O)NCc2ccc3c(c2F)CN(C2CCC(=O)NC2=O)C3=O)cc1 (stereo not drawn) [FDAB-103]	–
< 1	> 80	O=C(Cc1cccc(-c2ccccc2)c1)NCc1ccc2c(c1F)CN(C1CCC(=O)NC1=O)C2=O (stereo not drawn) [FDAB-133]	–
–	–	[2H]c1c([2H])c(C(=O)NCc2ccc3c(c2F)CN(C2CCC(=O)NC2=O)C3=O)c([2H])c([2H])c1Cl (stereo not drawn) [FDAB-18]	IC50 (MV-4-11 cells; MV4-11, 72 h): 10 to 100 nM; inhibition at 1 µM (GSPT1 protein; NB-4, 6 h): > 80%
10 to 100	> 80	O=C1CCC(N2Cc3c(ccc(CNC(=O)c4ccc(Cl)c(O)c4)c3F)C2=O)C(=O)N1 (stereo not drawn) [FDAB-83]	–
< 1	–	O=C1CCC(N2Cc3c(ccc(CNC(=O)Nc4ccc(CCO)c(Cl)c4)c3F)C2=O)C(=O)N1 (stereo not drawn) [FDAB-183]	–
> 1000	< 25	O=C1CCC(N2Cc3cc(CNC(=O)c4ccncn4)c(F)cc3C2=O)C(=O)N1 (stereo not drawn) [FDAB-38]	–
< 1	> 80	O=C1CCC(N2Cc3c(ccc(CNC(=O)c4ccc(Oc5ccccc5)cc4)c3F)C2=O)C(=O)N1 (stereo not drawn) [FDAB-101]	–

IC50 (MV-4-11 cells; MV4-11, MV-4-11 cells, 72 h) [nM]	inhibition at 1 µM (GSPT1 protein; NB-4 cells, compound 1 μM, 6 h) [%]	Structure (SMILES)	further results
> 1000	< 25	O=C1CCC(N2Cc3c(ccc(CNC(=O)C4(c5ccc(Br)cc5F)CC4)c3F)C2=O)C(=O)N1 (stereo not drawn) [FDAB-141]	–
10 to 100	> 80	O=C1CCC(N2Cc3cc(CNC(=O)c4nc5ccccc5s4)c(F)cc3C2=O)C(=O)N1 (stereo not drawn) [FDAB-32]	–
> 1000	< 25	O=C1CCC(N2Cc3c(ccc(CNC(=O)c4ccc(Cl)cn4)c3Cl)C2=O)C(=O)N1 (stereo not drawn) [FDAB-80]	–
< 1	–	O=C1CCC(N2Cc3c(ccc(CNC(=O)c4ccc(OCc5ccccc5)c(O)c4)c3F)C2=O)C(=O)N1 (stereo not drawn) [FDAB-179]	–
1 to 10	–	Nc1cc(-c2ccccc2)ccc1C(=O)NCc1ccc2c(c1F)CN(C1CCC(=O)NC1=O)C2=O (stereo not drawn) [FDAB-176]	–
10 to 100	–	CC(C)(CN)c1ccc(C(=O)NCc2ccc3c(c2F)CN(C2CCC(=O)NC2=O)C3=O)cc1 (stereo not drawn) [FDAB-174]	–
< 1	–	NCc1ccc(-c2ccc(C(=O)NCc3ccc4c(c3F)CN(C3CCC(=O)NC3=O)C4=O)cc2)cc1 (stereo not drawn) [FDAB-175]	–
< 1	–	O=C(C#Cc1ccc(-c2ccc(O)cc2)cc1)NCc1ccc2c(c1F)CN(C1CCC(=O)NC1=O)C2=O (stereo not drawn) [FDAB-186]	–
< 1	–	Nc1ccc(-c2ccc(C#CC(=O)NCc3ccc4c(c3F)CN(C3CCC(=O)NC3=O)C4=O)cc2)cc1 (stereo not drawn) [FDAB-184]	–
1 to 10	–	N[C@@H](CC(=O)NCc1ccc2c(c1F)CN(C1CCC(=O)NC1=O)C2=O)C(c1ccccc1)c1ccccc1 (stereo partly drawn) [FDAB-181]	–
< 1	–	O=C(C#Cc1ccc(-c2ccc(CCO)cc2)cc1)NCc1ccc2c(c1F)CN(C1CCC(=O)NC1=O)C2=O (stereo not drawn) [FDAB-187]	–
10 to 100	–	CC(CCC(=O)NCc1ccc2c(c1F)CN(C1CCC(=O)NC1=O)C2=O)(c1ccc(O)cc1)c1ccc(O)cc1 (stereo not drawn) [FDAB-180]	–
< 1	–	Nc1ccc(-c2ccc(C(=O)NCc3ccc4c(c3F)CN(C3CCC(=O)NC3=O)C4=O)cc2)cc1 (stereo not drawn) [FDAB-177]	–
–	–	O=C1CCC(N2Cc3cc(CNC(=O)c4ccc(Cl)cn4)c(F)cc3C2=O)C(=O)N1 (stereo not drawn) [FDAB-57]	GSPT1 degradation (GSPT1 protein; NB-4 cells, compound 1 μM, 6 h): D (D denotes a percentage of degradation less than 25%)
1 to 10	–	O=C1CCC(N2Cc3cc(CNC(=O)Nc4ccc(CCO)c(Cl)c4)ccc3C2=O)C(=O)N1 (stereo not drawn) [FDAB-185]	–
< 1	–	CC(C)(C)c1ccc(C(=O)NCc2ccc3c(c2F)CN(C2CCC(=O)NC2=O)C3=O)cc1O (stereo not drawn) [FDAB-173]	–
< 1	–	COc1cc(C(=O)NCc2ccc3c(c2F)CN(C2CCC(=O)NC2=O)C3=O)c(N)cc1OCc1ccccc1 (stereo not drawn) [FDAB-178]	–
1 to 10	–	NCCc1ccc(-c2ccc(C#CC(=O)NCc3ccc4c(c3F)CN(C3CCC(=O)NC3=O)C4=O)cc2)cc1 (stereo not drawn) [FDAB-188]	–
< 1	–	CC(C)(C)c1ccc(C(=O)NCc2ccc3c(c2F)CN(C2CCC(=O)NC2=O)C3=O)c(N)c1 (stereo not drawn) [FDAB-172]	–
